Source: PubChem BioAssay (NCI)
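Cultured in 96-well plates, cells were exposed to test compound for 48 hours across five concentrations. The concentration for 50% growth inhibition is given as GI50. At the TGI there is no net growth.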

Experiments:
Assay in all cases: NCI-60 cell line screen, 48 h
[1] = tested on: 786-0 renal
[2] = tested on: A498 renal
[3] = tested on: A549 NSCLC
[4] = tested on: ACHN renal
[5] = tested on: BT-549 breast
[6] = tested on: CAKI-1 renal
[7] = tested on: CCRF-CEM leukemia
[8] = tested on: COLO 205 colon
[9] = tested on: DU-145 prostate
[10] = tested on: EKVX NSCLC
[11] = tested on: HCC-2998 colon
[12] = tested on: HCT-116 colon
[13] = tested on: HCT-15 colon
[14] = tested on: HL-60(TB) leukemia
[15] = tested on: HOP-62 NSCLC
[16] = tested on: HOP-92 NSCLC
[17] = tested on: HS 578T breast
[18] = tested on: HT29 colon
[19] = tested on: IGROV1 ovarian
[20] = tested on: K-562 leukemia
[21] = tested on: KM12 colon
[22] = tested on: LOX IMVI melanoma
[23] = tested on: M14 melanoma
[24] = tested on: MALME-3M melanoma
[25] = tested on: MCF7 breast
[26] = tested on: MDA-MB-231 breast
[27] = tested on: MDA-MB-435
[28] = tested on: MDA-MB-468 breast
[29] = tested on: MOLT-4 leukemia
[30] = tested on: NCI-H226 lung
[31] = tested on: NCI-H23 lung
[32] = tested on: NCI-H460 lung
[33] = tested on: NCI-H522 lung
[34] = tested on: NCI/ADR-RES ovarian
[35] = tested on: OVCAR-3 ovarian
[36] = tested on: OVCAR-4 ovarian
[37] = tested on: OVCAR-5 ovarian
[38] = tested on: OVCAR-8 ovarian
[39] = tested on: PC-3 prostate
[40] = tested on: RPMI-8226 leukemia
[41] = tested on: RXF 393 renal
[42] = tested on: SF-268 CNS
[43] = tested on: SF-295 CNS
[44] = tested on: SF-539 CNS
[45] = tested on: SK-MEL-2 melanoma
[46] = tested on: SK-MEL-28 melanoma
[47] = tested on: SK-MEL-5 melanoma
[48] = tested on: SK-OV-3 ovarian
[49] = tested on: SN12C renal
[50] = tested on: SNB-19 CNS
[51] = tested on: SNB-75 CNS
[52] = tested on: SR leukemia
[53] = tested on: SW-620 colon
[54] = tested on: T-47D breast
[55] = tested on: TK-10 renal
[56] = tested on: U251 CNS
[57] = tested on: UACC-257 melanoma
[58] = tested on: UACC-62 melanoma
[59] = tested on: UO-31 renal

COc1ccccc1/C=C/c1cccc(NC(=S)NCCCCN(C)C)c1
GI50 [1]: 15.8 µM | TGI [1]: 33.4 µM | GI50 [2]: 16.5 µM | TGI [2]: 30.3 µM | GI50 [3]: 16.3 µM | TGI [3]: 34.4 µM | GI50 [4]: 15.7 µM | TGI [4]: 29.1 µM | GI50 [5]: 17.6 µM | TGI [5]: 33.3 µM | GI50 [6]: 14.5 µM | TGI [6]: 27.8 µM | GI50 [7]: 12 µM | TGI [7]: 29.5 µM | GI50 [8]: 13.6 µM | TGI [8]: 29.9 µM | GI50 [9]: 15.9 µM | TGI [9]: 32.5 µM | GI50 [10]: 14.9 µM | TGI [10]: 31.3 µM | GI50 [11]: 13.2 µM | TGI [11]: 27.2 µM | GI50 [12]: 11.8 µM | TGI [12]: 28.6 µM | GI50 [13]: 8.09 µM | TGI [13]: 21.6 µM | GI50 [14]: 12.4 µM | TGI [14]: 29.7 µM | GI50 [15]: 16.2 µM | TGI [15]: 32.3 µM | GI50 [16]: 10.1 µM | TGI [16]: 25.9 µM | GI50 [17]: 18.3 µM | TGI [17]: 45.2 µM | GI50 [18]: 5.8 µM | TGI [18]: 20.6 µM | GI50 [19]: 17 µM | TGI [19]: 32.3 µM | GI50 [20]: 3.07 µM | TGI [20]: 13.3 µM | GI50 [21]: 16.1 µM | TGI [21]: 32.1 µM | GI50 [22]: 11.7 µM | TGI [22]: 25 µM | GI50 [23]: 12.1 µM | TGI [23]: 26.5 µM | GI50 [24]: 15.8 µM | TGI [24]: 29.8 µM | GI50 [25]: 10.4 µM | TGI [25]: 24.2 µM | GI50 [26]: 14.1 µM | TGI [26]: 27.8 µM | GI50 [27]: 3.82 µM | TGI [27]: 15.7 µM | GI50 [28]: 10.1 µM | TGI [28]: 22.6 µM | GI50 [29]: 13.3 µM | TGI [29]: 32.2 µM | GI50 [30]: 10.2 µM | TGI [30]: 27.4 µM | GI50 [31]: 15.2 µM | TGI [31]: 30.4 µM | GI50 [32]: 12.5 µM | TGI [32]: 27.8 µM | GI50 [33]: 15.2 µM | TGI [33]: 31.3 µM | GI50 [34]: 14.9 µM | TGI [34]: 37.9 µM | GI50 [35]: 10.7 µM | TGI [35]: 26 µM | GI50 [36]: 14.9 µM | TGI [36]: 29.6 µM | GI50 [37]: 15.3 µM | TGI [37]: 29 µM | GI50 [38]: 17 µM | TGI [38]: 34.5 µM | GI50 [39]: 14.2 µM | TGI [39]: 30.5 µM | GI50 [40]: 17.2 µM | TGI [40]: 51.8 µM | GI50 [41]: 11.8 µM | TGI [41]: 26.2 µM | GI50 [42]: 15.3 µM | TGI [42]: 34.5 µM | GI50 [43]: 12.5 µM | TGI [43]: 26.1 µM | GI50 [44]: 13.4 µM | TGI [44]: 26.2 µM | GI50 [45]: 16.1 µM | TGI [45]: 31.3 µM | GI50 [46]: 15.9 µM | TGI [46]: 29.5 µM | GI50 [47]: 14 µM | TGI [47]: 26.9 µM | GI50 [48]: 17 µM | TGI [48]: 35.1 µM | GI50 [49]: 15 µM | TGI [49]: 29 µM | GI50 [50]: 17.5 µM | TGI [50]: 34.7 µM | GI50 [51]: 12.1 µM | TGI [51]: 27.2 µM | GI50 [52]: 11.7 µM | TGI [52]: 35.4 µM | GI50 [53]: 14.5 µM | TGI [53]: 31.7 µM | GI50 [54]: 11.6 µM | TGI [54]: 27.3 µM | GI50 [55]: 17.3 µM | TGI [55]: 32.3 µM | GI50 [56]: 17.6 µM | TGI [56]: 33.3 µM | GI50 [57]: 16.3 µM | TGI [57]: 31.7 µM | GI50 [58]: 15.5 µM | TGI [58]: 29.3 µM | GI50 [59]: 13.7 µM | TGI [59]: 27.7 µM

CCc1ccccc1-c1nc(CN[C@@H]2C[C@@H]3C[C@H]([C@H]2C)C3(C)C)c(C)o1
GI50 [1]: 1.71 µM | TGI [1]: 3.5 µM | GI50 [2]: 1.54 µM | TGI [2]: 2.95 µM | GI50 [3]: 1.88 µM | TGI [3]: 4.03 µM | GI50 [4]: 1.77 µM | TGI [4]: 3.18 µM | GI50 [5]: 1.71 µM | TGI [5]: 3.17 µM | GI50 [6]: 1.83 µM | TGI [6]: 3.81 µM | GI50 [7]: 3.25 µM | TGI [7]: 10.6 µM | GI50 [8]: 1.85 µM | TGI [8]: 3.95 µM | GI50 [9]: 2.03 µM | TGI [9]: 4.26 µM | GI50 [10]: 2.58 µM | TGI [10]: 7.01 µM | GI50 [11]: 1.65 µM | TGI [11]: 3.07 µM | GI50 [12]: 1.74 µM | TGI [12]: 3.3 µM | GI50 [13]: 1.72 µM | TGI [13]: 3.15 µM | GI50 [14]: 2.43 µM | TGI [14]: 6.73 µM | GI50 [15]: 1.65 µM | TGI [15]: 3.28 µM | GI50 [16]: 1.37 µM | TGI [16]: 2.85 µM | GI50 [17]: 1.83 µM | TGI [17]: 4.16 µM | GI50 [18]: 1.73 µM | TGI [18]: 3.4 µM | GI50 [19]: 1.7 µM | TGI [19]: 3.26 µM | GI50 [20]: 2.34 µM | TGI [20]: 6.54 µM | GI50 [21]: 1.85 µM | TGI [21]: 3.57 µM | GI50 [22]: 1.66 µM | TGI [22]: 3.02 µM | GI50 [23]: 1.62 µM | TGI [23]: 3.12 µM | GI50 [24]: 1.49 µM | TGI [24]: 2.84 µM | GI50 [25]: 1.65 µM | TGI [25]: 3.18 µM | GI50 [26]: 1.7 µM | TGI [26]: 3.12 µM | GI50 [27]: 1.67 µM | TGI [27]: 3.11 µM | GI50 [28]: 1.5 µM | TGI [28]: 2.87 µM | GI50 [29]: 2.23 µM | TGI [29]: 5.72 µM | GI50 [30]: 2.11 µM | TGI [30]: 5 µM | GI50 [31]: 1.96 µM | TGI [31]: 4.38 µM | GI50 [32]: 1.72 µM | TGI [32]: 3.16 µM | GI50 [33]: 1.61 µM | TGI [33]: 3.22 µM | GI50 [34]: 1.76 µM | TGI [34]: 3.61 µM | GI50 [35]: 1.61 µM | TGI [35]: 2.96 µM | GI50 [36]: 2.53 µM | TGI [36]: 8.36 µM | GI50 [37]: 1.59 µM | TGI [37]: 3.04 µM | GI50 [38]: 1.7 µM | TGI [38]: 3.24 µM | GI50 [39]: 1.8 µM | TGI [39]: 4.38 µM | GI50 [40]: 2.19 µM | TGI [40]: 5.27 µM | GI50 [42]: 2.58 µM | TGI [42]: 11 µM | GI50 [43]: 1.72 µM | TGI [43]: 3.17 µM | GI50 [44]: 1.8 µM | TGI [44]: 3.18 µM | GI50 [45]: 2.55 µM | TGI [45]: 7.34 µM | GI50 [46]: 1.72 µM | TGI [46]: 3.11 µM | GI50 [47]: 1.77 µM | TGI [47]: 3.15 µM | GI50 [48]: 14.2 µM | TGI [48]: 28.9 µM | GI50 [49]: 1.68 µM | TGI [49]: 3.13 µM | GI50 [50]: 1.77 µM | TGI [50]: 3.4 µM | GI50 [51]: 12 µM | TGI [51]: 24.4 µM | GI50 [52]: 2.11 µM | TGI [52]: 5.33 µM | GI50 [53]: 1.69 µM | TGI [53]: 3.2 µM | GI50 [54]: 1.73 µM | TGI [54]: 3.81 µM | GI50 [55]: 2.01 µM | TGI [55]: 5.08 µM | GI50 [56]: 1.6 µM | TGI [56]: 3.06 µM | GI50 [57]: 1.66 µM | TGI [57]: 3.23 µM | GI50 [58]: 1.69 µM | TGI [58]: 3.19 µM | GI50 [59]: 2.13 µM | TGI [59]: 8.45 µM
